ChEMBL document CHEMBL5370650, “Discovery of Clinical Candidate NT-0796, a Brain-Penetrant and Highly Potent NLRP3 Inflammasome Inhibitor for Neuroinflammatory Disorders” (J Med Chem, 2023)
Values after ≈ are worked out from the molar mass of the structure shown. One block for each compound: values may come before it. Active and inactive are the calls of the source. No cut-off for these calls is given here.

Assays:
[1] = Permeability of compound at pH 7.4 incubated for 4 hrs by […] based PAMPA assay; type: ADME; conditions: read-out: permeability
[2] = Kinetic solubility of compound in PBS at pH7.4 at 1 to 200 uM incubated for 24 hrs by LC-UV analysis; type: physicochemical; conditions: pH 7.4, dose 1-200 µM, read-out: Kinetic_solubility
Cytochrome P450 2C19 = Cytochrome P450 2C19 (Homo sapiens, UniProt P33261); assay: Reversible inhibition of CYP2C19 in human liver microsomes using S-mephenytoin as substrate incubated for 20 mins in presence of NADPH by LC-MS/MS analysis; type: ADME, Microsome
Sequence of Cytochrome P450 2C19 (P33261 whole entry, the tested form may be a part): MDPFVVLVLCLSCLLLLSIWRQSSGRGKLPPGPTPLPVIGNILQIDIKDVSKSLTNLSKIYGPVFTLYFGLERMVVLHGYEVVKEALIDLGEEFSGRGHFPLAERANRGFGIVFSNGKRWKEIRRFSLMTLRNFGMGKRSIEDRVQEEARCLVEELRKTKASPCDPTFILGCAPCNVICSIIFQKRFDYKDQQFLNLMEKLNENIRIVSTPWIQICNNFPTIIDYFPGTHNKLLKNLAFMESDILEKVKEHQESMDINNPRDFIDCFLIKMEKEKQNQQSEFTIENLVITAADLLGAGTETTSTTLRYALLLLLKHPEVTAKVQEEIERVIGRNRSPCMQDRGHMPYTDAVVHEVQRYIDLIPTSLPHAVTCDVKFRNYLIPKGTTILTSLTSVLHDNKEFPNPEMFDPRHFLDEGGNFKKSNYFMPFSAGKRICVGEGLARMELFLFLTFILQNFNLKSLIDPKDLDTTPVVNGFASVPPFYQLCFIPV

[3] = molecular target: T1, NACHT, LRR and PYD domains-containing protein 3 (Homo sapiens, UniProt Q96P20); assay: Inhibition of NLRP3 inflammasome activation in human whole blood assessed as inhibition of LPS/ATP induced IL-1beta secretion preincubated with LPS for 3 hrs followed by compound addition for 30 mins and further stimulated with ATP for 60 mins by ELISA; type: tissue-based
T1 sequence (Q96P20 whole entry, the tested form may be a part): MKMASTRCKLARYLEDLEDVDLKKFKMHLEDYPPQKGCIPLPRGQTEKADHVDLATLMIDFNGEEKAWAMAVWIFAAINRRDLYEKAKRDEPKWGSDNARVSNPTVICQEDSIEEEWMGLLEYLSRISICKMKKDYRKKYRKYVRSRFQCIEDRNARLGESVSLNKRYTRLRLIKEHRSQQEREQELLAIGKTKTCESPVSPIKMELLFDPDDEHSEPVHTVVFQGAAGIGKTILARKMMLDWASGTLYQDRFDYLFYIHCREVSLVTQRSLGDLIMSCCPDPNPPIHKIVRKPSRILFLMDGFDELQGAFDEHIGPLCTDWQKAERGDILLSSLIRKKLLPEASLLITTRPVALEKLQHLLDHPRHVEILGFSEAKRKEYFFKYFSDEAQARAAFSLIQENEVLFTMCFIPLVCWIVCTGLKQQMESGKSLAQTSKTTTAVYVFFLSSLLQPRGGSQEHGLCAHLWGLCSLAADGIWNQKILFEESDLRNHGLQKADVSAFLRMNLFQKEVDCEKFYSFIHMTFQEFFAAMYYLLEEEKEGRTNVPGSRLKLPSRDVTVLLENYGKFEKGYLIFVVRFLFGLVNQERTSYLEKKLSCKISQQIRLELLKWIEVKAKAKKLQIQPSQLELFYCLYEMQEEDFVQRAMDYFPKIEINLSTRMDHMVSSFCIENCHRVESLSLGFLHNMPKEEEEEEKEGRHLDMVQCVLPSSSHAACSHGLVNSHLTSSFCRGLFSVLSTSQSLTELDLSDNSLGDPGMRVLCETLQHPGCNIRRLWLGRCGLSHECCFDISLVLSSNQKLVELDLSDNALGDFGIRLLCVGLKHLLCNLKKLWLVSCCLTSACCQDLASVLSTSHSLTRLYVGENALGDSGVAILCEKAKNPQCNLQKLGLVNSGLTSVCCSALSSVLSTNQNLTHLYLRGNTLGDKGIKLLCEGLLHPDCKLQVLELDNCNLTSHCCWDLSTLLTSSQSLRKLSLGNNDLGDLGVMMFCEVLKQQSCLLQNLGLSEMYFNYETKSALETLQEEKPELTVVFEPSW

[4] = molecular target: T1, NACHT, LRR and PYD domains-containing protein 3; assay: Inhibition of NLRP3 inflammasome activation in LPS-activated human PBMC cells assessed as inhibition of ATP/nigericin induced IL-1beta secretion preincubated with LPS for 3 hrs followed by compound addition for 30 mins and further stimulated with ATP for 1 hr by ELISA; type: cell-based
[5] = Inhibition of LPS-induced TNFalpha secretion in human PBMC cells incubated for 4 hrs by ELISA
[6] = Inhibition of LPS-induced IL-6 secretion in human PBMC cells incubated for 4 hrs by ELISA
[7] = Drug concentration in C57BL/6J mouse brain at 3 mg/kg, iv measured after 5 mins by LC-MS/MS analysis; type: ADME, organism-based; conditions: read-out: Ct
Cytochrome P450 2D6 = Cytochrome P450 2D6 (Homo sapiens, UniProt P10635); assay: Reversible inhibition of CYP2D6 in human liver microsomes in presence of NADPH by LC-MS/MS analysis; type: ADME, Microsome
Sequence of Cytochrome P450 2D6 (P10635 whole entry): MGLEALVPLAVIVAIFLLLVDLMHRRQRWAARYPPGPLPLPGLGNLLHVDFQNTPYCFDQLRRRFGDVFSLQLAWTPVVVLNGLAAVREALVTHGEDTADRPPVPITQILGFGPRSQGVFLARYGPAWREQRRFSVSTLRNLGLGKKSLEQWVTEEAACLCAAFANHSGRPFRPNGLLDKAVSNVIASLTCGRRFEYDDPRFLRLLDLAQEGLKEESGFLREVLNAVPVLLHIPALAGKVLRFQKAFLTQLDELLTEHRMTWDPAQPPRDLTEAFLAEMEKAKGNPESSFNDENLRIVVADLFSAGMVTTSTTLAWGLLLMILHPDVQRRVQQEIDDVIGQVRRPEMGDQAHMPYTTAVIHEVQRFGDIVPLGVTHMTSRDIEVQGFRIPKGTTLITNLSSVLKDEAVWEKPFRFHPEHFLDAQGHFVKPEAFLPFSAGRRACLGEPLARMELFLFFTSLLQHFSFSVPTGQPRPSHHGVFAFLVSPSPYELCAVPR

[8] = Drug concentration in C57BL/6J mouse blood at 3 mg/kg, iv measured after 5 mins by LC-MS/MS analysis; type: ADME, organism-based; conditions: read-out: Ct
Cytochrome P450 3A4 [9] = molecular target: T2, Cytochrome P450 3A4 (Homo sapiens, UniProt P08684); assay: Reversible inhibition of CYP3A4 in human liver microsomes using nifedipine as substrate incubated for 5 mins in presence of NADPH by LC-MS/MS analysis; type: ADME, Microsome
T2 sequence (P08684 whole entry): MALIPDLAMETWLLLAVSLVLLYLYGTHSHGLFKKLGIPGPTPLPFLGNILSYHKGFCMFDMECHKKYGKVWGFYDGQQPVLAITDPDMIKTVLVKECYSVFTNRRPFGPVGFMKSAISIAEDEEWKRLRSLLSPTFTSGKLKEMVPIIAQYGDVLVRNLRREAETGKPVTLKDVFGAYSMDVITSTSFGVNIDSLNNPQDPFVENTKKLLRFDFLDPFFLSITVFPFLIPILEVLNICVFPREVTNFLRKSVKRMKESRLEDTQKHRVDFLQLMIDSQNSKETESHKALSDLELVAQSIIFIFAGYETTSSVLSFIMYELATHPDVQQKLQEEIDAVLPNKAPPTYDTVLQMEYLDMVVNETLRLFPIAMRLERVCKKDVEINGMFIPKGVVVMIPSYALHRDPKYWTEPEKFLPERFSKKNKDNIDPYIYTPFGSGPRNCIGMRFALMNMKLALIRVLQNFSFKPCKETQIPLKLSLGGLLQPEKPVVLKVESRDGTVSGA

Cytochrome P450 2C9 = Cytochrome P450 2C9 (Homo sapiens, UniProt P11712); assay: Reversible inhibition of CYP2C9 in human liver microsomes in presence of NADPH by LC-MS/MS analysis; type: ADME, Microsome
Sequence of Cytochrome P450 2C9 (P11712 whole entry): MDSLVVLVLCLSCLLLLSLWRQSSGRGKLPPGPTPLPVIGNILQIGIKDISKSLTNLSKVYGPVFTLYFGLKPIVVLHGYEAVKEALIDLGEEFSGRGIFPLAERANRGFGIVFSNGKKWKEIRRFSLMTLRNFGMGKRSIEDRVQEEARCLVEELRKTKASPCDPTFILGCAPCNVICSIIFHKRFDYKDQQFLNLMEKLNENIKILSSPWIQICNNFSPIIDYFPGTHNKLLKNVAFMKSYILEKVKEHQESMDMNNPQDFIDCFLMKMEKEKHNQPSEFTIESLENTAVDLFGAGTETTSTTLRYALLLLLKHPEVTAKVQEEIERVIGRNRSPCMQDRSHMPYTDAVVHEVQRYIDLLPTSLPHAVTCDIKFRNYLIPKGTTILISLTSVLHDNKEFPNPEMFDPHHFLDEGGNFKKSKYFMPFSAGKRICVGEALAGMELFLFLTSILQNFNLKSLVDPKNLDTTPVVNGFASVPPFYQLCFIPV

[10] = Ratio of drug concentration in C57BL/6J mouse brain to blood at 3 mg/kg, iv measured after 5 mins by LC-MS/MS analysis; type: ADME, organism-based; conditions: read-out: BBR
Cytochrome P450 1A2 = molecular target: T3, Cytochrome P450 1A2 (Homo sapiens, UniProt P05177); assay: Reversible inhibition of CYP1A2 in human liver microsomes in presence of NADPH by LC-MS/MS analysis; type: ADME, Microsome
T3 sequence (P05177 whole entry): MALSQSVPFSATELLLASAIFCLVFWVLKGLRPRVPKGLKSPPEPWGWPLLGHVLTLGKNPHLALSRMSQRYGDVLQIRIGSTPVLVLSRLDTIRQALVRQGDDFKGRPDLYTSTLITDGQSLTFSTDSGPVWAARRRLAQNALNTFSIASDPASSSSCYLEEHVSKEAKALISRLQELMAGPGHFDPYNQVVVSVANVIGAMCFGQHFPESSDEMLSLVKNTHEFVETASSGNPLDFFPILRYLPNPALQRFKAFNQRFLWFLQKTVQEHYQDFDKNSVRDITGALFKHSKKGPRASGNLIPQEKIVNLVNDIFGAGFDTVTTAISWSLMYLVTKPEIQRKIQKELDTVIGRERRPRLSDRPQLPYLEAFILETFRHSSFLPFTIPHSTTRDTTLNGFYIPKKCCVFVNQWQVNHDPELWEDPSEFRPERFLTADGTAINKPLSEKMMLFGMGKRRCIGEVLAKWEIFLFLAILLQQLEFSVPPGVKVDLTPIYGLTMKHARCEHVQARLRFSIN

[11] = Induction of steatosis in human HepG2 cells assessed as accumulation of triglycerides in cytoplasm by high content screening analysis; type: toxicity, cell-based
[12] = Mutagenicity in Salmonella typhimurium by Ames test; type: toxicity; conditions: salmonella enterica subsp. enterica serovar typhimurium
Cytochrome P450 3A4 [13] = molecular target: T2, Cytochrome P450 3A4; assay: Reversible inhibition of CYP3A4 in human liver microsomes using midazolam as substrate in presence of NADPH by LC-MS/MS analysis; type: ADME, Microsome
HepG2 = assay: Induction of phospholipidosis in human HepG2 cells assessed as increase in phospholipids within lysosome by high content screening analysis; type: toxicity, cell-based
[14] = molecular target: Voltage-gated inwardly rectifying potassium channel KCNH2 (Homo sapiens, UniProt Q12809); assay: Inhibition of hERG transfected in CHO cells at -80 mV holding potential by Whole-cell patch clamp assay; type: toxicity, cell-based
Sequence of Voltage-gated inwardly rectifying potassium channel KCNH2 (Q12809 whole entry): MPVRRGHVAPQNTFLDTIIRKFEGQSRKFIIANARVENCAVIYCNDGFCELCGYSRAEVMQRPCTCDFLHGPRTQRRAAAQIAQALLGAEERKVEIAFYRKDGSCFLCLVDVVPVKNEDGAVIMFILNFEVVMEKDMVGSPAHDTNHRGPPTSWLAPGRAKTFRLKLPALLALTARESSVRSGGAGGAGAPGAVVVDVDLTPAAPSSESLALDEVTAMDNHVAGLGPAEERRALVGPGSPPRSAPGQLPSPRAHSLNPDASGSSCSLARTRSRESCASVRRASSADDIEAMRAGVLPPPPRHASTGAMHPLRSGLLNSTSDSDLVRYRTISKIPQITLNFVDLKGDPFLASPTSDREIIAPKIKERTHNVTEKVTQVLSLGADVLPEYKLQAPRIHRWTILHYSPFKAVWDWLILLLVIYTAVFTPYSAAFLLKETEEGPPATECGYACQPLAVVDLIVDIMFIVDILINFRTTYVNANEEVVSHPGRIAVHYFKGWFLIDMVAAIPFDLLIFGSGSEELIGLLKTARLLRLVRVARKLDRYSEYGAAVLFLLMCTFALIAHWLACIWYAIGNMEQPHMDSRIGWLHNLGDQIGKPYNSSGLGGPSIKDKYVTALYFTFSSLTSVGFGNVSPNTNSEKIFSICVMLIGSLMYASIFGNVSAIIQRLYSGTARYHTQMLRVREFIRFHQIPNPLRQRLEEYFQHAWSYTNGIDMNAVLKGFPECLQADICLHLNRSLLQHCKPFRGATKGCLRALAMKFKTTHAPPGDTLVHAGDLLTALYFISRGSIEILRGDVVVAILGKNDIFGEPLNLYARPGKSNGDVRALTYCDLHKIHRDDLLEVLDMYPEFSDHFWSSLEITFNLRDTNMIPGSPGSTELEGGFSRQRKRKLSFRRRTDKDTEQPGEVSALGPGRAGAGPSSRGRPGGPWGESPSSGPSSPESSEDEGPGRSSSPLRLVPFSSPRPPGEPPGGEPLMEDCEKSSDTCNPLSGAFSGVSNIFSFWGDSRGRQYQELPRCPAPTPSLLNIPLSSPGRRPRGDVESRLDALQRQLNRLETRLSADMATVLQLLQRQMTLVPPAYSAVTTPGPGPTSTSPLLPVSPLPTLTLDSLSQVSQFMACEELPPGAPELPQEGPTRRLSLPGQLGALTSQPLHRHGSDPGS

[15] = Phototoxicity in mouse BALB/3T3 clone A31 cells incubated under dark condition for 1 hr followed by 2.5 J/cm2 UVA light irradiation for 18 mins by neutral red dye based assay; type: toxicity, cell-based; conditions: balb/3t3 clone a31, 1.3 h, time 78 min
Cytochrome P450 2B6 = molecular target: T4, Cytochrome P450 2B6 (Homo sapiens, UniProt P20813); assay: Reversible inhibition of CYP2B6 in human liver microsomes in presence of NADPH by LC-MS/MS analysis; type: ADME, Microsome
T4 sequence (P20813 whole entry): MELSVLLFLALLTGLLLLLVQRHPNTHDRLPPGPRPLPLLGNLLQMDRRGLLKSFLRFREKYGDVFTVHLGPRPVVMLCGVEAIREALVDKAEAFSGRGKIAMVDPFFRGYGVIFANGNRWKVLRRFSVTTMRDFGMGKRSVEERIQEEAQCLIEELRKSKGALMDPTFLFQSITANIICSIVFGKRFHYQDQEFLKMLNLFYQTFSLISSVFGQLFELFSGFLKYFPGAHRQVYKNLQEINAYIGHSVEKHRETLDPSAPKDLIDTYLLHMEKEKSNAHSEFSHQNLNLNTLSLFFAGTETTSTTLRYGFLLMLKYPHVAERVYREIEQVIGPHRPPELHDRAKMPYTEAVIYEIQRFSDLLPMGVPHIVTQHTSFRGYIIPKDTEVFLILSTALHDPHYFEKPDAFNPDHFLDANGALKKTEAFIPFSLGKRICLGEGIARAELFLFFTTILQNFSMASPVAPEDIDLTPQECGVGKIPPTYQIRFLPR

Cytochrome P450 2C8 = molecular target: T5, Cytochrome P450 2C8 (Homo sapiens, UniProt P10632); assay: Reversible inhibition of CYP2C8 in human liver microsomes in presence of NADPH by LC-MS/MS analysis; type: ADME, Microsome
T5 sequence (P10632 whole entry): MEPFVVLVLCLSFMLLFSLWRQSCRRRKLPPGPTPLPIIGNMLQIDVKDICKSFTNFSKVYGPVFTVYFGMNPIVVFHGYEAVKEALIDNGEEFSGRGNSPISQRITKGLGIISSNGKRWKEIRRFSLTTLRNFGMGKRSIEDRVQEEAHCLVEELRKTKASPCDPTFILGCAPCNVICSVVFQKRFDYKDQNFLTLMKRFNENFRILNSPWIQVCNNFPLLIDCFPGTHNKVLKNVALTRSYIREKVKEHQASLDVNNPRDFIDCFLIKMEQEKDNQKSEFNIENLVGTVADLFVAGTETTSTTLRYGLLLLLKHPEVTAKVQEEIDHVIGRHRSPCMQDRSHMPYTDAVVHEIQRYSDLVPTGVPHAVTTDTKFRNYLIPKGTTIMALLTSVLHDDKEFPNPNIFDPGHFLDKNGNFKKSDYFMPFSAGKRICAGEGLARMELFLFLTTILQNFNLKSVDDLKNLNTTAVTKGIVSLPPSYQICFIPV

[16] = molecular target: 5-hydroxytryptamine receptor 2B (Homo sapiens) (UniProt P41595); assay: Antagonist activity at 5HT2B (unknown origin) at 10 uM by Eurofins-CEREP panel assay relative to control; type: functional; set-up: scale not given: the % may be the effect or the level left; conditions: filed as antagonist
Sequence of 5-hydroxytryptamine receptor 2B (Homo sapiens) (P41595 whole entry): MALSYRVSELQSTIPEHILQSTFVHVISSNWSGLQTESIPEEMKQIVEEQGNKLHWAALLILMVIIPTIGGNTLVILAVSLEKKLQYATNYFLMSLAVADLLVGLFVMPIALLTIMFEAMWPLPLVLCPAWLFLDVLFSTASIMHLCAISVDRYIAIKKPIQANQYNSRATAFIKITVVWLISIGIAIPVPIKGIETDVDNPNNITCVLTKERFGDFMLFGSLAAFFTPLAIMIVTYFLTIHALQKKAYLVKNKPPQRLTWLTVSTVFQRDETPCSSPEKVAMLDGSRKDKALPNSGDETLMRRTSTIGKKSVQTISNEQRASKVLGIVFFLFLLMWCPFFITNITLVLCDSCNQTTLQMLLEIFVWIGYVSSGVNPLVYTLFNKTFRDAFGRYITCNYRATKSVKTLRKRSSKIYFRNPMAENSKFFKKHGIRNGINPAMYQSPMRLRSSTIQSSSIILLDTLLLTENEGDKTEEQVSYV

NLRC4 (Homo sapiens) = assay: Inhibition of NLRC4 inflammasome activation in human PBMC assessed as reduction in IL-1beta secretion at 3 nM preincubated with LPS for 2.5 hrs followed by compound addition for 30 mins by ELISA

IC50 [3]: > 20 µM
IC50 [4]: > 20 µM
SMILES: CCOC(=O)COC(=O)Nc1ccccc1C(F)(F)F

IC50 [3]: 9.2 µM
IC50 [4]: 1 µM
SMILES: CCOC(=O)COC(=O)Nc1c(Cl)cccc1Cl

IC50 [3]: 1.1 µM
IC50 [4]: 0.93 µM
SMILES: CCOC(=O)COC(=O)Nc1c(C)cccc1C

IC50 [3]: > 20 µM
IC50 [4]: > 20 µM
SMILES: CCOC(=O)COC(=O)Nc1ccccc1OC(F)(F)F

IC50 [3]: > 20 µM
IC50 [4]: 10 µM
SMILES: CCOC(=O)COC(=O)Nc1c(C(C)C)cccc1C(C)C

IC50 [3]: 9.4 µM
IC50 [4]: 1.9 µM
SMILES: CCOC(=O)COC(=O)Nc1c(F)cccc1F

IC50 [3]: 2.4 µM
IC50 [4]: 1.5 µM
SMILES: CCOC(=O)COC(=O)Nc1c(C)cccc1CC

IC50 [3]: 2.9 µM
IC50 [4]: 0.97 µM
SMILES: CCOC(=O)COC(=O)Nc1cc(C)ccc1C

IC50 [3]: 13 µM
IC50 [4]: 0.81 µM
SMILES: CCOC(=O)COC(=O)Nc1c(CC)cccc1CC

IC50 [3]: > 40 µM
IC50 [4]: > 40 µM
SMILES: CCOC(=O)COC(=O)N(C)c1c2c(cc3c1CCC3)CCC2

IC50 [3]: 3.9 µM
IC50 [4]: 0.59 µM
SMILES: CCOC(=O)COC(=O)Nc1c(C)cc(C)cc1C

IC50 [3]: 5.5 µM
IC50 [4]: 1.6 µM
SMILES: CCOC(=O)COC(=O)Nc1ccccc1C(C)C

IC50 [3]: 6.8 µM
IC50 [4]: 5.5 µM
SMILES: CCOC(=O)COC(=O)Nc1ccccc1C#N

Further lines, the compound ahead of its results:

SMILES: CC(C)OC(=O)[C@@H](Cn1cc(C#N)cn1)OC(=O)Nc1c2c(cc3c1CCC3)CCC2
Papp at 4 h [1]: 5 ×10⁻⁶ cm/s
solubility kinetic at 24 h [2]: < 1 µM
IC50 (Cytochrome P450 2C19): 4.4 µM

SMILES: CCOC(=O)CNC(=O)Oc1c2c(cc3c1CCC3)CCC2
IC50 [3]: > 40 µM
IC50 [4]: > 40 µM

SMILES: CCOC(=O)[C@@H](Cc1ncccn1)NC(=O)Nc1c2c(cc3c1CCC3)CCC2
Papp at 4 h [1]: 8.2 ×10⁻⁶ cm/s
IC50 [5]: 2.7 µM
IC50 [6]: 4.3 µM

SMILES: O=C(Nc1c2c(cc3c1CCC3)CCC2)O[C@H](Cc1ncccn1)C(=O)O
concentration at 5 min [7]: 91.7 ng/g
IC50 [3]: 4.7 µM
Papp at 4 h [1]: < 0.0002 ×10⁻⁶ cm/s
solubility kinetic at 24 h [2]: > 200 µM
IC50 (Cytochrome P450 2D6): > 30 µM
concentration at 5 min [8]: 1160 ng/mL
IC50 (Cytochrome P450 3A4 [9]): > 30 µM
IC50 (Cytochrome P450 2C9): > 30 µM
Kp at 5 min [10]: 0.07
IC50 (Cytochrome P450 1A2): > 30 µM
IC50 [4]: 0.066 µM
IC50 (Cytochrome P450 2C19): > 30 µM

SMILES: CC(C)OC(=O)[C@@H](Cn1cncn1)OC(=O)Nc1c2c(cc3c1CCC3)CCC2
Papp at 4 h [1]: 13.7 ×10⁻⁶ cm/s
solubility kinetic at 24 h [2]: 37 µM (≈ 14.7 µg/mL)
IC50 (Cytochrome P450 1A2): 0.18 µM

SMILES: CC(C)OC(=O)[C@@H](Cc1cnccn1)OC(=O)Nc1c2c(cc3c1CCC3)CCC2
Papp at 4 h [1]: 13.7 ×10⁻⁶ cm/s
solubility kinetic at 24 h [2]: 5.5 µM (≈ 2.25 µg/mL)
IC50 (Cytochrome P450 1A2): 1.1 µM

SMILES: O=C(Nc1c2c(cc3c1CCC3)CCC2)O[C@H](Cc1ncccn1)C(=O)OC1CCCC1
Papp at 4 h [1]: 3.5 ×10⁻⁶ cm/s
solubility kinetic at 24 h [2]: < 1 µM

SMILES: COC(=O)CN(C)C(=O)Nc1c2c(cc3c1CCC3)CCC2
IC50 [3]: > 40 µM
IC50 [4]: > 40 µM

SMILES: CC(C)(O)c1coc(S(=O)(=O)NC(=O)Nc2c3c(cc4c2CCC4)CCC3)c1
Papp at 4 h [1]: < 0.0003 ×10⁻⁶ cm/s
IC50 [5]: > 40 µM
IC50 [6]: > 40 µM

SMILES: CC(C)OC(=O)[C@@H](Cc1ncccn1)OC(=O)Nc1c2c(cc3c1CCC3)CCC2 [NT-0796]
MEC [11]: > 40 µM
Activity [12]: Non-Toxic
concentration at 5 min [7]: 479 ng/g
IC50 (Cytochrome P450 3A4 [13]): > 30 µM
Papp at 4 h [1]: 11.8 ×10⁻⁶ cm/s
IC50 [5]: > 2 µM
solubility kinetic at 24 h [2]: 28 µM (≈ 11.5 µg/mL)
MEC (HepG2): > 40 µM
IC50 (Cytochrome P450 2D6): > 30 µM
concentration at 5 min [8]: 610 ng/mL
IC50 (Cytochrome P450 3A4 [9]): > 30 µM
IC50 [14]: > 30 µM
Activity [15]: Non-Toxic
IC50 (Cytochrome P450 2C9): > 30 µM
Kp at 5 min [10]: 0.79
IC50 (Cytochrome P450 2B6): > 30 µM
IC50 (Cytochrome P450 2C8): > 30 µM
IC50 [6]: > 2 µM
IC50 (Cytochrome P450 1A2): > 30 µM
IC50 (Cytochrome P450 2C19): > 30 µM
Activity [16]: 90%
inhibition (NLRC4 (Homo sapiens)): inactive
